Patent publication US6737383B1, “Herbicidal oxadiazolidines” (priority 1999, dated 2004)

What was measured:
surinam grass = experiment: Test B pre/postemergence surinam grass; type: in vivo, Brachiaria decumbens
Procedure, shortened: (§1)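 Herbicidal effect was estimated by eye on a ten-point control scale after plants spent twelve to sixteen days in a greenhouse following soil or foliar treatment. Foliar sprays targeted plants at one to four leaves; all doses were formulated in a non-phytotoxic solvent with surfactant.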

morningglory = experiment: Test B pre/postemergence morningglory; type: in vivo, Ipomoea hederacea
Procedure, shortened: as §1

soybean = experiment: Test B pre/postemergence soybean; type: in vivo, Glycine max
Procedure, shortened: as §1

bedstraw = experiment: Test B pre/postemergence bedstraw; type: in vivo, Galium aparine
Procedure, shortened: as §1

rape = experiment: Test B pre/postemergence rape; type: in vivo, Brassica napus
Procedure, shortened: as §1

wheat = experiment: Test B pre/postemergence wheat; type: in vivo, Triticum aestivum
Procedure, shortened: as §1

purple nutsedge = experiment: Test B pre/postemergence purple nutsedge; type: in vivo, Cyperus rotundus
Procedure, shortened: as §1

giant foxtail = experiment: Test B pre/postemergence giant foxtail; type: in vivo, Setaria faberii
Procedure, shortened: as §1

crabgrass = experiment: Test B pre/postemergence crabgrass; type: in vivo, Digitaria sanguinalis
Procedure, shortened: as §1

corn = experiment: Test B pre/postemergence corn; type: in vivo, Zea mays
Procedure, shortened: as §1

cocklebur = experiment: Test B pre/postemergence cocklebur; type: in vivo, Xanthium strumarium
Procedure, shortened: as §1

blackgrass = experiment: Test B pre/postemergence blackgrass; type: in vivo, Alopecurus myosuroides
Procedure, shortened: as §1

velvetleaf = experiment: Test B pre/postemergence velvetleaf; type: in vivo, Abutilon theophrasti
Procedure, shortened: as §1

sugar beet = experiment: Test B pre/postemergence sugar beet; type: in vivo, Beta vulgaris
Procedure, shortened: as §1

pigweed = experiment: Test B pre/postemergence pigweed; type: in vivo, Amaranthus retroflexus
Procedure, shortened: as §1

wild oat = experiment: Test B pre/postemergence wild oat; type: in vivo, Avena fatua
Procedure, shortened: as §1

[1] = Postemergence, Rate 62 g/ha, scale 0 to 10, 0 is no effect, 10 is complete control
[2] = Postemergence, Rate 125 g/ha, scale of 0 to 10 where 0 is no effect and 10 is complete control
[3] = Postemergence, Rate 250 g/ha, scale of 0 to 10, 0 is no effect, 10 is complete control
[4] = Postemergence, Rate 500 g/ha, scale of 0 to 10 where 0 is no effect and 10 is complete control
[5] = Preemergence, Rate 62 g/ha, scale of 0 to 10 where 0 is no effect and 10 is complete control
[6] = Preemergence, Rate 125 g/ha, scale of 0 to 10 where 0 is no effect and 10 is complete control
[7] = Preemergence, Rate 250 g/ha, scale 0 to 10 (0 no effect, 10 complete control)
[8] = Preemergence, Rate 500 g/ha, scale of 0 to 10 where 0 is no effect and 10 is complete control

CCCCn1c(=O)on(C(=O)N(c2ccc(F)cc2F)C(C)C)c1=O [Compound 635]
Plant response rating, B. signalgrass (surinam grass; [1]): 0 | Plant response rating, B. signalgrass (surinam grass; [2]): 0 | B. signalgrass plant response rating (surinam grass; [3]): 2 | Plant response rating, B. signalgrass (surinam grass; [4]): 8 | B. signalgrass plant response rating (surinam grass; [5]): 4 | B. signalgrass plant response rating (surinam grass; [6]): 8 | Plant response rating, B. signalgrass (surinam grass; [7]): 9 | Plant response rating, B. signalgrass (surinam grass; [8]): 9 | Plant response rating, Morningglory (morningglory; [1]): 1 | Plant response rating, Morningglory (morningglory; [2]): 4 | Morningglory plant response rating (morningglory; [3]): 4 | Plant response rating, Morningglory (morningglory; [4]): 7 | Morningglory plant response rating (morningglory; [5]): 0 | Morningglory plant response rating (morningglory; [6]): 0 | Plant response rating, Morningglory (morningglory; [7]): 0 | Plant response rating, Morningglory (morningglory; [8]): 6 | Plant response rating, Soybean (soybean; [1]): 3 | Plant response rating, Soybean (soybean; [2]): 4 | Soybean plant response rating (soybean; [3]): 4 | Soybean plant response rating (soybean; [5]): 0 | Soybean plant response rating (soybean; [6]): 0 | Plant response rating, Soybean (soybean; [7]): 0 | Plant response rating, Soybean (soybean; [8]): 2 | Plant response rating, Bedstraw (bedstraw; [1]): 5 | Plant response rating, Bedstraw (bedstraw; [2]): 7 | Bedstraw plant response rating (bedstraw; [3]): 9 | Bedstraw plant response rating (bedstraw; [5]): 9 | Bedstraw plant response rating (bedstraw; [6]): 8 | Plant response rating, Bedstraw (bedstraw; [7]): 7 | Plant response rating, Bedstraw (bedstraw; [8]): 9 | Plant response rating, Rape (rape; [1]): 2 | Plant response rating, Rape (rape; [2]): 5 | Rape plant response rating (rape; [3]): 7 | Plant response rating, Rape (rape; [4]): 9 | Rape plant response rating (rape; [5]): 6 | Rape plant response rating (rape; [6]): 6 | Plant response rating, Rape (rape; [7]): 7 | Plant response rating, Rape (rape; [8]): 9 | Plant response rating, Wheat (wheat; [1]): 0 | Plant response rating, Wheat (wheat; [2]): 0 | Wheat plant response rating (wheat; [3]): 2 | Wheat plant response rating (wheat; [5]): 0 | Wheat plant response rating (wheat; [6]): 0 | Plant response rating, Wheat (wheat; [7]): 3 | Plant response rating, Wheat (wheat; [8]): 4 | Plant response rating, Nutsedge (purple nutsedge; [1]): 0 | Plant response rating, Nutsedge (purple nutsedge; [2]): 0 | Nutsedge plant response rating (purple nutsedge; [5]): 0 | Nutsedge plant response rating (purple nutsedge; [6]): 0 | Plant response rating, Nutsedge (purple nutsedge; [7]): 3 | Plant response rating, Nutsedge (purple nutsedge; [8]): 4 | Plant response rating, Giant foxtail (giant foxtail; [1]): 5 | Plant response rating, Giant foxtail (giant foxtail; [2]): 8 | Giant foxtail plant response rating (giant foxtail; [3]): 8 | Plant response rating, Giant foxtail (giant foxtail; [4]): 9 | Giant foxtail plant response rating (giant foxtail; [5]): 9 | Giant foxtail plant response rating (giant foxtail; [6]): 9 | Plant response rating, Giant foxtail (giant foxtail; [7]): 10 | Plant response rating, Giant foxtail (giant foxtail; [8]): 10 | Plant response rating, Crabgrass (crabgrass; [1]): 4 | Plant response rating, Crabgrass (crabgrass; [2]): 9 | Crabgrass plant response rating (crabgrass; [3]): 8 | Plant response rating, Crabgrass (crabgrass; [4]): 9 | Crabgrass plant response rating (crabgrass; [5]): 9 | Crabgrass plant response rating (crabgrass; [6]): 9 | Plant response rating, Crabgrass (crabgrass; [7]): 9 | Plant response rating, Crabgrass (crabgrass; [8]): 9 | Plant response rating, Corn (corn; [1]): 0 | Plant response rating, Corn (corn; [2]): 0 | Corn plant response rating (corn; [3]): 0 | Plant response rating, Corn (corn; [4]): 2 | Corn plant response rating (corn; [5]): 0 | Plant response rating, Corn (corn; [7]): 2 | Plant response rating, Corn (corn; [8]): 8 | Plant response rating, Cocklebur (cocklebur; [1]): 2 | Plant response rating, Cocklebur (cocklebur; [2]): 2 | Cocklebur plant response rating (cocklebur; [3]): 3 | Plant response rating, Cocklebur (cocklebur; [4]): 3 | Cocklebur plant response rating (cocklebur; [5]): 0 | Cocklebur plant response rating (cocklebur; [6]): 0 | Plant response rating, Cocklebur (cocklebur; [7]): 0 | Plant response rating, Cocklebur (cocklebur; [8]): 0 | Plant response rating, Blackgrass (blackgrass; [1]): 2 | Plant response rating, Blackgrass (blackgrass; [2]): 3 | Blackgrass plant response rating (blackgrass; [3]): 7 | Blackgrass plant response rating (blackgrass; [5]): 9 | Plant response rating, Blackgrass (blackgrass; [7]): 9 | Plant response rating, Blackgrass (blackgrass; [8]): 8 | Plant response rating, Velvetleaf (velvetleaf; [1]): 0 | Plant response rating, Velvetleaf (velvetleaf; [2]): 0 | Velvetleaf plant response rating (velvetleaf; [3]): 2 | Velvetleaf plant response rating (velvetleaf; [5]): 0 | Plant response rating, Velvetleaf (velvetleaf; [7]): 3 | Plant response rating, Velvetleaf (velvetleaf; [8]): 7 | Plant response rating, Sugarbeets (sugar beet; [1]): 3 | Plant response rating, Sugarbeets (sugar beet; [2]): 3 | Sugarbeets plant response rating (sugar beet; [3]): 7 | Sugarbeets plant response rating (sugar beet; [5]): 3 | Sugarbeets plant response rating (sugar beet; [6]): 5 | Plant response rating, Sugarbeets (sugar beet; [7]): 8 | Plant response rating, Sugarbeets (sugar beet; [8]): 9 | Plant response rating, Redroot pigweed (pigweed; [1]): 0 | Plant response rating, Redroot pigweed (pigweed; [2]): 0 | Redroot pigweed plant response rating (pigweed; [3]): 3 | Redroot pigweed plant response rating (pigweed; [5]): 10 | Redroot pigweed plant response rating (pigweed; [6]): 10 | Plant response rating, Redroot pigweed (pigweed; [7]): 10 | Plant response rating, Redroot pigweed (pigweed; [8]): 10 | Plant response rating, Wild oats (wild oat; [1]): 0 | Plant response rating, Wild oats (wild oat; [2]): 0 | Wild oats plant response rating (wild oat; [3]): 5 | Wild oats plant response rating (wild oat; [5]): 2 | Wild oats plant response rating (wild oat; [6]): 6 | Plant response rating, Wild oats (wild oat; [7]): 9 | Plant response rating, Wild oats (wild oat; [8]): 9
